According to patent US20050074777A1, “Novel cell-surface estrogen receptor and related compositions and methods” (priority 2002, published 2005):
“Also recorded” adds a separate entry of the source.

Legend:
[1] = system: estrogen-binding protein (ER-X); assay: DES-sensitive 3H-estradiol binding in CLM preparations and lysates; parameters: species or system mouse; conditions: unlabeled competitor in excess
Experimental: Caveolar-like membrane (CLM) preparation. Membrane fractions were prepared by adapting the detergent-free method of Smart et al. (Smart, 1995). Briefly, pools of 40-50 P7 ERKO neocortices were homogenized in 20 mM Tricine, pH 7.8 buffer, containing 1 mM EDTA, 0.25M sucrose and 1 mM dithiothreitol (TESD buffer), then centrifuged at 1000×g at 4° C. for 10 minutes. The pellet was resuspended in TESD buffer, re-centrifuged, and the supernatants pooled. The combined supernatants were subjected to Percoll® gradient fractionation in the same buffer to isolate the plasma membrane fraction. In some binding experiments (indicated below), Percoll® purified plasma membranes were used without further fractionation. For preparation of CLMs, plasma-membranes were sonicated and further separated by centrifugation on a linear 20% to 10% OptiPrep (iodixanol) gradient (Nycomed Pharma AS, Oslo, Norway). Based upon their light buoyant density, CLMs were separated and purified from non-CLMs using two OptiPrep density gradients. […] Electrophoretically separated CLMs on PVDF membranes were probed with antibodies specific for ER-α ([…], UBI; MC20, Santa Cruz), ER-β (Zymed), flotillin (BD Transduction Labs) and other caveolar-resident proteins (PKC-α and PKC-γ, BD Transduction Labs) and non-caveolar-resident proteins (paxillin, BD Transduction Labs). Estrogen binding assay. Duplicate aliquots of 1 mg each of protein lysate from ERKO P7 neocortex or wild-type adult uterus were pre-cleared for 30 minutes using anti-rabbit-IgG-coated magnetic beads (Dynal AS). Pre-cleared protein lysates were immunoprecipitated with anti-ER-α antibodies (6F11, Novocastra; or MC20, Santa Cruz) at 4° C. overnight. […] NEN Life Sciences, Boston, Mass.) at 4° C. for 18 hours. The incubation was terminated by adsorption of the binding sites onto an equal volume of hydroxylapatite (HAP) slurry in TESD buffer. HAP pellets were washed four times with Tris-buffered saline containing 0.2% Tween-20 buffer and extracted with 1 ml absolute ethanol overnight at room temperature. The ethanol supernatants were transferred to liquid scintillation fluid (5 ml) and counted. Control tubes, used in assessing HAP adsorption of free steroid, contained HAP and the same buffer constituents, without addition of the membranes. Non-specific binding was assayed in the membranes using the same amount of radioactive ligand plus 200-fold molar excess of unlabeled diethylstilbestrol (DES) (Sigma-Aldrich). Specific binding was calculated by subtracting non-specific from total binding.

[2] = system: ER-X (plasma-membrane estrogen binding site of P7 ERKO neocortex); assay: Specificity (competition) of 3H-estradiol binding in Percoll-purified P7 ERKO neocortical membranes; parameters: species or system mouse; conditions: 2 nM 3H-estradiol, 18 hours at 4° C.
Experimental: Binding of ^3H estradiol to Percoll®-purified plasma-membranes from P7 ERKO and wild-type mouse neocortex. (a) Identical amounts of membrane protein (50 μg/tube) were incubated with varying concentrations of ^3H estradiol (0.3-8 nM) for 18 hours at 4° C. The reaction was terminated by addition of hydroxylapatite (HAP). The membranes and HAP were sedimented by centrifugation in a microfuge, and the pellet washed 4 times to remove free steroid. Radioactivity in the pellets was extracted with ethanol and counted. […] (b) Specificity of the binding site in Percoll®-purified membranes from P7 ERKO mouse neocortex. […] Bound ^3H estradiol was separated by sedimentation with HAP and counted at an efficiency of 50%. Data represent the number of bound counts (after subtraction of HAP-only blank control tubes, containing no membrane protein) expressed as the means +/−S.D. of triplicate determinations. The horizontal dashed line indicates the level of non-specific binding observed in the presence of 1 μM DES. Estrogen binding assay. Duplicate aliquots of 1 mg each of protein lysate from ERKO P7 neocortex or wild-type adult uterus were pre-cleared for 30 minutes using anti-rabbit-IgG-coated magnetic beads (Dynal AS). Pre-cleared protein lysates were immunoprecipitated with anti-ER-α antibodies (6F11, Novocastra; or MC20, Santa Cruz) at 4° C. overnight. […] NEN Life Sciences, Boston, Mass.) at 4° C. for 18 hours. The incubation was terminated by adsorption of the binding sites onto an equal volume of hydroxylapatite (HAP) slurry in TESD buffer. HAP pellets were washed four times with Tris-buffered saline containing 0.2% Tween-20 buffer and extracted with 1 ml absolute ethanol overnight at room temperature. The ethanol supernatants were transferred to liquid scintillation fluid (5 ml) and counted. Control tubes, used in assessing HAP adsorption of free steroid, contained HAP and the same buffer constituents, without addition of the membranes. Non-specific binding was assayed in the membranes using the same amount of radioactive ligand plus 200-fold molar excess of unlabeled diethylstilbestrol (DES) (Sigma-Aldrich). Specific binding was calculated by subtracting non-specific from total binding.

[3] = system: ERK1/2 phosphorylation; assay: ERK1/2 phosphorylation in post-nuclear supernatant (PNS), cell-free system; type: biochemical, mouse; conditions: for phosphorylation of ERK1 and ERK2: P7 wild-type neocortical PNS, 10 minutes, 37° C.
Text: Isolation of post-nuclear supernatant (PNS). To increase the yield of ER-X and to test in a cell-free system whether the presence of ER-α is inhibitory for ERK activation, as had been shown previously in neocortical cultures (Singh, 2000), PNS, a cell-free system which contains all the cell organelles except the nucleus, was studied. PNS was isolated from P7 wild-type and ERKO neocortices according to the method of Smart et al. (Smart, 1995). Three to four P7 wild-type and ERKO neocortices were homogenized using a teflon homogenizer in 1 ml of 20 mM Tricine, pH 7.8 buffer, containing 1 mM EDTA, 0.25M sucrose, 10 μg/ml aprotinin and 1 μg/ml leupeptin. The homogenate was centrifuged at 1000×g at 4° C. for 10 minutes. The supernatant obtained is the PNS. The pellet was resuspended in 500 μl of the homogenization buffer, re-centrifuged, and the PNS obtained was pooled with the first PNS. ERKO and wild-type PNS were mixed with 10X phosphorylation buffer, and the MAPK assay was performed as described above.

[4] = system: ERK1/2 phosphorylation; assay: Phosphorylation of ERK1/2 in ERKO CLM and non-CLM preparations; type: biochemical, mouse; conditions: for phosphorylation of ERK1/2: 30 minutes
Experimental: Phosphorylation of ERK1/2 in CLM and non-CLM preparations. Phosphorylation of ERK1/2 in ERKO CLM and non-CLM preparations was examined following the method of Liu et al. (Liu, 1997), except that basal medium Eagle (BME) was used in the place of MEM. Nine parts of CLM or non-CLM preparations were mixed with one part of 10×BME, pH 7.4 containing BSA 800 μg/ml, 10 mM NaF, 2 mM Na3VO4, leupeptin 100 μg/ml, soybean trypsin inhibitor 100 μg/ml, 10 mM MgCl2, and 1 mM ATP. […] Cell Signaling Technology, Beverly, Mass.) for 30 minutes prior to pulsing them with the appropriate estradiol. […] (Singh, 1999; and Singh, 2000).

[5] = system: ERK1/2 phosphorylation; assay: ERK1/2 phosphorylation in neocortical explant cultures (Western immunoblot); type: cell-based, mouse; conditions: wild-type neocortical cultures
Experimental: Neocortical cultures. Organotypic explant cultures, obtained from 360 pm hemi-coronal slices of the frontal and cingulate neocortex of P2 wild-type and ERKO mice (day of birth =P1), were explanted onto collagen-coated, poly-D-lysine pre-coated coverslips and maintained in roller tube culture with gonadal steroid-deficient (gelding serum) and phenol red-free nutrient medium, as previously described (Singh, 1999; and Singh, 2000). The nutrient medium was supplemented with 17β-estradiol (2 nM; Sigma-Aldrich, St. Louis, Mo.) for one week, in order to optimize the development of CNS cultures from estrogen target regions. […]
Antibody binding to protein was detected using a secondary antibody conjugated to horseradish peroxidase (1:40,000; Pierce Chemical Company, Rockford, Ill.), and visualized autoradiographically on film using enzyme-linked chemiluminescence (ECL®; Amersham Pharmacia Biotech) (Singh et, 1999; and Singh, 2000). All blots were stripped and re-probed with the appropriate antibody to verify equal loading of protein across lanes and were analyzed densitometrically. […]

[6] = system: ERK1/2 phosphorylation; conditions: neocortical explants (Singh, 2000); cited from earlier work
[7] = system: ERK1/2 phosphorylation; assay: Cholesterol depletion: ERK1/2 phosphorylation in neocortical explants pre-treated with Nystatin; type: cell-based, mouse; conditions: P9 wild-type neocortical explants, 50 μg/ml for 1 hour before a 30 minute pulse
Experimental: Cholesterol depletion. To determine whether disruption of CLMs impairs estrogen activation of the MAPK cascade, neocortical explants were pre-treated on P9 with the sterol binding agent Nystatin (50 μg/ml) (Sigma-Aldrich), a compound used extensively to document the association of growth factor receptors with caveolae/CLMs (Huang, 1999). […] P9 neocortical explants were exposed to Nystatin (50 μg/ml) (Sigma-Aldrich), BDNF (10 ng/ml) or vehicle control (PBS) for 1 hour prior to pulsing with 10 nM 17β-estradiol for 30 minutes in the continued presence of Nystatin, BDNF or vehicle. Explants were then analyzed by Western immunoblot analysis for phospho-ERK expression using antibodies to phosphorylated p44/42 MAP Kinase (ERK1/2, Thr202/Tyr204; Cell Signaling Technology), as previously described (Singh, 1999; and Singh, 2000).

[8] = 1 μM unlabelled competitor (500-fold molar excess)

## CC/C(=C(/CC)c1ccc(O)cc1)c1ccc(O)cc1 [DES, diethylstilbestrol]
[1]
  effect on binding of 10 nM 3H-estradiol to P7 ERKO CLMs: suppressed

## CC(=O)[C@H]1CC[C@H]2[C@@H]3CCC4=CC(=O)CC[C@]4(C)[C@H]3CC[C@]12C [progesterone]
[2]; [8]
  inhibition of binding of 3H-estradiol: only partially suppressing binding

## N#CC(=C(/N)Sc1ccccc1N)/C(C#N)=C(\N)Sc1ccccc1N [U0126]
[3]; wild-type neocortical PNS, 10 μM
  effect on estradiol-induced ERK1/2 phosphorylation: inhibited
[4]; P7 ERKO neocortical CLMs, 10 μM, 30 minutes pre-treatment
  effect on estradiol-induced ERK activation: inhibited

## C[C@]12CC[C@@H]3c4ccc(O)cc4CC[C@H]3[C@@H]1CC[C@@H]2O [17β-estradiol]
[3]; 10 nM
  phosphorylation of ERK1 and ERK2: significantly less than the levels following exposure to 17α-estradiol; also recorded: elicited MEK-dependent (U0126) phosphorylation of ERK1 and ERK2
[2]; 50 nM unlabelled competitor
  inhibition of binding of 3H-estradiol: markedly inhibited
[2]; [8]
  inhibition of binding of 3H-estradiol: reduced to the non-specific levels
[5]
  concentration range eliciting activation of ERK1/2: 0.1 to 10 nM
[4]; P7 ERKO neocortical CLMs, 10 nM
  phosphorylation of ERK1/2: elicited phosphorylation of ERK1/2
[4]; non-CLM regions of the plasma membrane, 10 nM
  phosphorylation of ERK1/2: did not respond

## O=c1c(-c2ccc(O)cc2)coc2cc(O)cc(O)c12 [genistein]
[6]
  activation of ERK1/2 by ER-α- or ER-β-selective ligands: not activated

## C[C@@H]1[C@H](O)[C@@H](C)/C=C/C=C/CC/C=C/C=C/C=C/C=C/C(O[C@H]2O[C@H](C)[C@@H](O)[C@H](N)[C@@H]2O)CC2O[C@](O)(CC(O)C(O)CCC(O)CC(O)CC(O)CC(=O)O[C@H]1C)CC(O)C2C(=O)O (stereo partly shown) [Nystatin]
[7]
  effect on ERK1/2 phosphorylation elicited by 17β-estradiol (10 nM) and BDNF: decreased the ability of both estradiol and BDNF to elicit ERK1/2 phosphorylation

## O=c1oc2cc(O)ccc2c2oc3cc(O)ccc3c12 [coumestrol]
[6]
  activation of ERK1/2 by ER-α- or ER-β-selective ligands: not activated

## C[C@]12CC[C@@H]3c4ccc(O)cc4CC[C@H]3[C@@H]1CC[C@H]2O [17α-estradiol]
[3]; 0.1 nM
  phosphorylation of ERK1 and ERK2: elicited MEK-dependent (U0126) phosphorylation of ERK1 and ERK2
[2]; 50 nM unlabelled competitor
  inhibition of binding of 3H-estradiol: markedly inhibited
[2]; [8]
  inhibition of binding of 3H-estradiol: reduced to the non-specific levels
[4]; P7 ERKO neocortical CLMs, 0.1 nM
  phosphorylation of ERK1/2: elicited phosphorylation of ERK1/2
[4]; non-CLM regions of the plasma membrane, 0.1 nM
  phosphorylation of ERK1/2: did not respond

## C[C@]12CC[C@@H]3c4ccc(O)cc4CC[C@H]3[C@@H]1C[C@@H](I)[C@@H]2O [16α-iodo-17β-estradiol]
[6]
  activation of ERK1/2 by ER-α- or ER-β-selective ligands: not activated
